For orientation: IC50 means the point on the concentration scale where inhibition reaches its midpoint.

The target in assay [1] is Tubulin alpha chain (Sus scrofa) (UniProt P02550). The assay is described as follows: Tested for inhibitory concentration against […]-induced depolymerization of microtubules. The format is functional.
Assay [2] can be described thus: Cytotoxicity against human epidermoid carcinoma KB cells. The class given is functional, cell-based.
In assay [3] the test system is L1210. The assay is described as follows: Cytotoxicity against murine leukemia L1210 cells. The class given is functional, cell-based, Mus musculus. To be noted: Mus musculus, L1210; read-out: IC50.
Assay [4] is described as follows: Vincristine (VCR) accumulation in multidrug resistant human ovarian cancer 2780 AD cells at a concentration 1 ug/mL. The format is functional.
Assay [5] is described as follows: Vincristine (VCR) accumulation in multidrug resistant human ovarian cancer 2780 AD cells at a concentration 10 ug/mL. The class given is functional.

Values after ≈ are worked out from the molar mass of the structure shown. Bounds are passed on as bounds.

Tubulin alpha chain (Sus scrofa), sequence (P02550 whole entry, looked up): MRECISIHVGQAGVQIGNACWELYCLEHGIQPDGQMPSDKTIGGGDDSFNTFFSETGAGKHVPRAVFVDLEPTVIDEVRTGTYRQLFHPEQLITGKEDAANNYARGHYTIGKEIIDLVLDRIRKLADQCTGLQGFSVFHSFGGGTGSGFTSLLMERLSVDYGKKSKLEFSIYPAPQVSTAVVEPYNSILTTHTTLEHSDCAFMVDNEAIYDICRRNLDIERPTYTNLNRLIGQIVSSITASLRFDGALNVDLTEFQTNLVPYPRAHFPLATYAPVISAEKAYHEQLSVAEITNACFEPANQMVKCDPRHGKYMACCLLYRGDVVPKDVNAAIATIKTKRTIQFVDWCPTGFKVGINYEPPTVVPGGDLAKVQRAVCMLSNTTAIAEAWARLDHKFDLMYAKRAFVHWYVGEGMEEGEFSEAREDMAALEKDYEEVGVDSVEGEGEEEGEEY

As to `CC(=O)O[C@H]1C(=O)[C@@]2(C)[C@H]([C@H](OC(=O)c3ccccc3)[C@]3(O)C[C@H](OC(=O)[C@H](O)[C@@H](NC(=O)c4ccccc4)c4ccccc4)C(C)=C1C3(C)C)[C@]1(OC(C)=O)CO[C@@H]1C[C@@H]2O`, the Concentration in assay [1] came to 10 µM.

Consider `CC(=O)O[C@H]1C[C@H]2[C@@H](OC(C)=O)/C=C3\C[C@](C)(C(=O)[C@H](O)C(=C1C)C2(C)C)[C@@H](OC(C)=O)C[C@@H]3OC(=O)C(O)C(c1ccccc1)N(C)C` (some centres not stated), for which the IC50 in assay [2] was more than 10 µg/mL; in assay [3] it was 7.1 µg/mL (≈ 10.4 µM). Besides, the “vincristine accumulation (% of control)” value was found to be 119% in assay [4] and 298% in assay [5].

Turning to `C=C1[C@@H](O)C[C@H](OC(C)=O)[C@@]2(C)[C@@H](OC(C)=O)[C@H](OC(=O)c3ccccc3)C3=C(C)[C@@H](OC(C)=O)C[C@@]3(C(C)(C)O)[C@@H](OC(C)=O)[C@H]12`, the IC50 in assay [2] and in assay [3] was more than 10 µg/mL throughout. Further, the “vincristine accumulation (% of control)” value was 158% in assay [4] and 313% in assay [5].

In the case of `C=C1[C@@H](O)C[C@H](OC(C)=O)[C@@]2(COC(C)=O)[C@@H](OC(C)=O)[C@H](OC(C)=O)[C@]3(O)[C@@]4(C)CO[C@]3(C)C(=O)C[C@H]4[C@@H](OC(C)=O)[C@H]12`, the IC50 in assay [2] and in assay [3] was more than 10 µg/mL in each case. Moreover, the “vincristine accumulation (% of control)” value came to 142% in assay [4] and 198% in assay [5].

As to `C=C1[C@@H](OC(=O)/C=C/c2ccccc2)C[C@H](OC(C)=O)[C@@]2(C)[C@@H](OC(C)=O)[C@H](OC(C)=O)C3=C(C)C(=O)C[C@@H]([C@@H](OC(C)=O)[C@H]12)C3(C)C`, the IC50 in assay [2] and in assay [3] was more than 10 µg/mL in each case. In addition, the “vincristine accumulation (% of control)” value in assay [4] worked out at 116%; in assay [5] it was 438%.

The values are drawn from ChEMBL document CHEMBL1130376, “Effects of taxoids from Taxus cuspidata on microtubule depolymerization and vincristine accumulation in MDR cells” (Bioorg Med Chem Lett, 1997).
